Reference: US20210308143A1, “COMPOSITIONS AND METHODS FOR REDUCING BODY FAT” (Topokine Therapeutics, Inc., priority 2006, published 2021)
Entries after “also recorded” stand apart in the source; their conditions may differ.

Key:
[1] = test system: 3T3-L1 preadipocytes and mature adipocytes; assay: MTS test for cell viability; format: cell-based, mouse
Procedure: (§1) Preparation of preadipocytes. 3T3-L1 mouse embryo fibroblasts are obtained and cultured. Cells are cultured at 37° C. in a humidified 5% CO2 atmosphere and grown in Dulbecco's modified Eagle's medium (DMEM) with 10% bovine calf serum. Confluency is induced for 2 days (Days −1 and 0) and preadipocytes are cultured in DMEM with 10% fetal bovine serum (FBS/DMEM) medium, supplemented with 167 nM insulin, […] isobutylmethylxanthine, and 1 μM dexamethasone for 2 days (Days 1 and 2).
Preparation (induction) of mature adipocytes from preadipocytes. Preadipocytes prepared as above are then maintained in a culture medium with 167 nM insulin supplement for another 2 days (Days 3 and 4), followed by culturing with 10% FBS/DMEM medium for an additional 4 days (Days 5-8), at which time >90% of the cells are expected to have differentiated and matured into adipocytes with accumulated fat droplets. All media contains 100 U/mL penicillin, 100 μg/mL streptomycin, and 292 μg of L-glutamine/mL. […]
Test for cell viability. […] The plate is analyzed by spectrometry at a wavelength of 490 nm, which is an absorbance peak for formazan. The quantity of formazan as measured by absorbance at 490 nm is a directly proportional to the number of viable cells.

[2] = test system: mature adipocytes (from 3T3-L1); assay: Laser scanning cytometry (annexin V/PI) test for apoptosis; format: cell-based, mouse; details: 24 hours
Procedure: as §1
(§2) Preparation (induction) of mature adipocytes from preadipocytes. Preadipocytes prepared as above are then maintained in a culture medium with 167 nM insulin supplement for another 2 days (Days 3 and 4), followed by culturing with 10% FBS/DMEM medium for an additional 4 days (Days 5-8), at which time >90% of the cells are expected to have differentiated and matured into adipocytes with accumulated fat droplets. All media contains 100 U/mL penicillin, 100 μg/mL streptomycin, and 292 μg of L-glutamine/mL.
All experiments, except where otherwise indicated, are performed with bimatoprost added to the culture medium for a final concentration of 0%, 0.003%, 0.03%, or 0.3% for a duration of 3, 6, 12, or 24 hours [with 1:1000 dimethyl sulfoxide (DMSO)]. […]
Test for apoptosis (1). […] Apoptotic cells fluoresce and are detected by LSC, since AV binds specifically to phosphatidylserine in the disrupted plasma membrane. […]

[3] = test system: 3T3-L1 preadipocytes and mature adipocytes; assay: TUNEL imaging test for apoptosis; format: cell-based, mouse
Procedure: as §1, §2
Test for apoptosis (2). Terminal Deoxynucleotidyl Transferase dUTP Nick-End Labeling (TUNEL) Imaging is one of the most common assays for apoptosis. […] Apoptosis manifests as fluorescence upon microscopic examination, which reflects the antibody-labeled BrdU incorporated at the cleaved portions of DNA.

3T3-L1 preadipocytes = assay: Oil-Red-O test for differentiation of preadipocytes into mature adipocytes; format: cell-based, mouse
Procedure: as §1, §2
Test for differentiation of preadipocytes into mature adipocytes. Oil-Red-O, a specific lipid stain, is used to test the effect of bimatoprost on adipogenesis. […] For each dish, multiple images are taken and analyzed for average lipid droplet size, percentage lipid area, and total droplet number with software. […]

[4] = test system: laboratory rodents (hairless rats or nude mice); assay: In vivo rodent study, daily topical ointment on abdominal skin; details: daily topical ointment 0.003-0.3%, six months
Procedure: Animal preparation. Genetically uniform laboratory rodents (for example, hairless rats or nude mice) are used. They are adult laboratory rodents similar in size at the commencement of the study (approximately postnatal week 15 for rats). Multiple animals are tested. Animals randomized to bimatoprost are housed separately from control animals but are kept in the same room under identical environmental conditions. All animals are fed a standard diet, appropriate for the species, ad libidum.
Method. In all cases the vehicle is a compatible ointment, such as petrolatum, with a final bimatoprost concentration of 0%, 0.003%, 0.03%, or 0.3%. A fixed amount of ointment, for example 1 gram, is applied daily in a thin film over a uniform surface area of the abdominal skin of each animal. Each animal is randomized to a daily application of a dose of topical bimatoprost or vehicle alone. On a weekly basis, total body mass of each animal is determined on a scale. Total body fat is estimated by any of the several methods established for this purpose, for example, water displacement (Dahms et al. (1982) J NUTR. 112: 398-400), isotopic dilution (Culebras et al. (1977) J. PHYSIOL. 232: R60-65), Total Body Electrical Conductance (TOBEC) (Baer et al. (1993) PHYSIOL. BEHAV. 53: 1195-99), Dual-Energy X-Ray Absorptiometry (DEXA) (Bertin et al. (1998) J NUTRITION 128: 1550-54), or Nuclear Magnetic Resonance (NMR) (Kunnecke et al. (2004) OBES RES. 12: 1604-151. Animals are maintained and monitored in this fashion for six months, at which point they are sacrificed.
Analysis and Results. Abdominal fat pads of the sacrificed animals are excised and measured directly for mass and volume. Direct carcass analysis with chemical extraction may be further performed (Frisch et al. (1977) PNAS 74: 379-383). All results are normalized with reference to baseline values and then compared between bimatoprost and control groups.

human subjects = assay: In vivo human randomized double-blind study, topical ointment over triceps; details: daily petrolatum ointment 0.003-0.3%, 6 months
Excerpt: Multiple human subjects (both male and female), for example, with body mass indices of 30 or more but otherwise healthy, are entered into a randomized double-blind study. Either the left or the right arm is randomized to receive topical bimatoprost; the other arm receives vehicle only. Bimatoprost is supplied in a petrolatum-based ointment (the vehicle) at a final concentration of 0%, 0.003%, 0.03% or 0.3%. Ointment containers are unlabeled as to the presence or concentration of bimatoprost. Each day, subjects apply a thin film of ointment to the skin over the respective triceps while wearing new, clean surgical gloves. Subjects are instructed to refrain from washing the treated area for at least 8 hours and are instructed to refrain from wearing tight clothing or occlusive dressings that will come into contact with the treated area. Body fat calipers are used to measure fat in the triceps region bilaterally on a weekly basis. The study continues for 6 months. […] As a result, this contemplated outcome will show, in vivo, that compounds according to the present invention, including bimatoprost, can reduce fat.

human patients = assay: Clinical application examples (Examples 4-8), local bimatoprost to reduce fat deposits; format: in vivo; details: for fat pad between shoulders / fatty deposits on cheeks: daily ointment to face and between shoulders
Excerpt: In light of the foregoing description, the specific non-limiting examples presented below are for illustrative purposes and not intended to limit the scope of the invention in any way. In Examples 4-8, various modes of non-systemic administration of a cyclopentane heptanoic acid, 2-arylalkyl or cycloalkyl compound or derivative thereof can be used, for example, by topical application (ointment, cream, or transdermal patch), subcutaneous injection, intramuscular injection, or intralesional injection, any of which may involve a controlled (or sustained) release formulation or depot. In addition to medical therapy, the person's physician recommends a regimen of diet and exercise. After six months the person is unable to lose weight. The physician prescribes daily topical application of a bimatoprost ointment to the abdomen as treatment for central obesity. […] The person's physician prescribes a daily application of a bimatoprost ointment to the face and between the shoulders as treatment for the fat deposits. […] The person's physician prescribes a daily application of a bimatoprost ointment to the face and between the shoulders as treatment for the fat deposits. […] The plastic surgeon prescribes a daily application of a bimatoprost ointment to the hips and thighs as treatment for the fat deposits. […] The doctor prescribes an ophthalmic preparation of bimatoprost daily to both eyes as a treatment for the proptosis and exposure symptoms.

human eye = details: eyedrops, glaucoma, cited from earlier work
[5] = preadipocytes and/or mature adipocytes
[6] = Example 4, obese person, daily ointment to abdomen
[7] = Example 5, Cushing syndrome secondary to prednisone
[8] = Example 6, HIV-related lipodystrophy
[9] = Example 8, Grave's disease orbitopathy, ophthalmic preparation daily to both eyes

## CCNC(=O)CCC/C=C\C[C@@H]1[C@@H](/C=C/[C@@H](O)CCc2ccccc2)[C@H](O)C[C@@H]1O [bimatoprost, cyclopentane N-ethyl heptenamide-5-cis-2-(3α-hydroxy-5-phenyl-1-trans-pentenyl)-3,5-dihydroxy, [1α, 2β, 3α, 5α]]
[1]; bimatoprost 0.003%, 0.03% or 0.3%, up to 24 hours, vs DMSO control
  absorbance at 490 nm on MTS testing, treated cells compared to control cells: lower absorbance at 490 nm
[1]; [5]
  rates of viability compared to control samples: lower rates of viability
[2]
  AV-labeled and/or PI-labeled cells on laser scanning cytometry compared to control samples: more AV-labeled and/or PI-labeled (apoptotic or dead) cells
[3]; preadipocytes and mature adipocytes, 24 hours
  BrdU-antibody-labeled cells on TUNEL imaging compared to control samples: more BrdU-antibody-labeled (fluorescent) cells
[3]; [5]
  rates of apoptosis compared to control samples: higher rates of apoptosis
3T3-L1 preadipocytes; bimatoprost 0.003%, 0.03%, and 0.3% μM added with induction medium
  lipid droplets on Oil-Red-O staining compared to control samples: smaller and fewer lipid droplets
3T3-L1 preadipocytes; preadipocytes
  rates of differentiation into mature adipocytes compared to control samples: lower rates of differentiation into mature adipocytes
[4]
  subcutaneous (abdominal) fat mass compared to control animals: lower subcutaneous (abdominal) fat mass
  total body fat mass compared to control animals: lower total body fat mass
  total body mass compared to control animals: lower total body mass
Human subjects
  fat in treated body area (triceps, calipers) compared to vehicle-treated area: lower fat
Human patients; [6]
  BMI: BMI is reduced
  abdominal fat deposits: abdominal fat deposits are reduced
Human patients; [7]
  fat pad between shoulders: fat pad between their shoulders is reduced
  fatty deposits on cheeks: fatty deposits on the person's cheeks are reduced
Human patients; [8]
  fat pad between shoulders: fat pad between their shoulders is reduced
  fatty deposits on cheeks: fatty deposits on the person's cheeks are reduced
Human patients; Example 7, daily ointment to hips and thighs
  fatty deposits on hips and/or thighs: fatty deposits on the person's hips and/or thighs are reduced
Human patients; [9]
  condition (proptosis and exposure symptoms): their condition improves
  orbital fat: orbital fat is reduced
Human eye; Peplinski et al. (2004)
  unwanted side-effects: periocular pigmentary changes involving the eyelid; also recorded: deepening of the lid sulcus
Human eye
  intraocular pressure: decrease intraocular pressure
